The text below walks through data of patent US4705900A, “Insecticidal alkenes” (Imperial Chemical Industries PLC, priority 1985, dated 1987).

Test [1] has as its system Musca domestica. The test is described as follows: mortality of houseflies (MD), contact test. It counts as in vivo, Musca domestica (houseflies - adults). The conditions noted are these: Musca domestica, 24 h, cotton wool/sugar, 1 day, read-out: grading of mortality, MD. As to the method:
(§1) The activity of the Product was determined using a variety of insect pests. The Product was used in the form of liquid preparations containing 500 or 100 parts per million (ppm) by weight of the Product. The preparations were made by dissolving the Product in acetone and diluting the solutions with water containing 0.01% by weight of a wetting agent sold under the trade name "LISSAPOL" NX until the liquid preparations contained the required concentration of the Product. "Lissapol" is a Registered Trade Mark.
(§2) The test procedure adopted with regard to each pest was basically the same and comprised supporting a number of the pests on a medium which was usually a host plant or a foodstuff on which the pests feed, and treating either or both the pests and the medium with the preparations. The mortality of the pests was then assessed at periods usually varying from one to three days after the treatment.
(§3) The results of the tests are given in Table IV for each of the Products, at the rate in parts per million given in the second column as a grading of mortality designated as A, B or C wherein A indicates 80-100% mortality or knockdown, B indicates 50-79% mortality or knockdown and C indicates less than 50% mortality or knockdown.
(§4) In Table IV the pest organism used is designated by a letter code and the pests species, the support medium or food, and the type and duration of test is given in Table III.

The subject of another test is Myzus persicae. The test is described as follows: mortality of aphids (MP), contact test. As to conditions: Myzus persicae, 48 h, leaf, 2 days, read-out: grading of mortality, MP. It counts as in vivo, Myzus persicae (aphids). The method, then: as §1, §2, §3, §4
The subject of another test is Blattella germanica. Description: mortality of cockroach nymphs (BG), residual test. As to conditions: Blattella germanica, 72 h, plastic pot, 3 days, read-out: grading of mortality, BG. It counts as in vivo, Blattella germanica (cockroach nymphs). The method, then: as §1, §2, §3, §4
Test [2] relates to Musca domestica. The test is described as follows: knockdown of houseflies (MD/KD). It counts as in vivo, Musca domestica (houseflies - adults). As to conditions: Musca domestica, cotton wool/sugar, 4 hours, read-out: grading of knockdown, MD/KD. As to the method: as §1, §2
In case of the species Musca domestica (housefly), additional tests to determine the knockdown effect of the compounds were performed.
as §3, §4

For a further test, the system named is Heliothis viriscens. Description: whole plant or invertebrate. It counts as in vivo, Heliothis viriscens (tobacco budworm). As to conditions: in Gossypium hirsutum, 72 h, read-out: grading of mortality, HV. As to the method: as §1, §2, §3, §4
The next test relates to Diabrotica balteata. The test is described as follows: mortality of rootworm larvae (DB), residual test. It counts as in vivo, Diabrotica balteata (rootworm larvae). The conditions noted are these: Diabrotica balteata, in Zea mays, 72 h, filter paper/maize seed, 3 days, read-out: grading of mortality, DB. As to the method:
as §1, §2, §3, §4

Another test has as its system Nilaparvata lugens. Description: mortality of green leaf hopper (NL), contact test. It counts as in vivo, Nilaparvata lugens (brown planthopper). As to conditions: Nilaparvata lugens, in Brassica oleracea, 144 h, cabbage leaf, 6 days, read-out: grading of mortality, NL. The method, then: as §1, §2, §3, §4
The subject of a further test is Tetranychus urticae. The test is described as follows: mortality of red spider mites (TU), contact test. The class given is in vivo, Tetranychus urticae (red spider mites - adult). As to conditions: Tetranychus urticae, 72 h, French bean leaf, 3 days, read-out: grading of mortality, TU. As to the method: as §1, §2, §3, §4
(red spider mites - adult)

A further test deals with Chilo partellurs. Description: mortality of stem borers (CP), residual test. The class given is in vivo, Chilo partellurs (Stem borers). As to conditions: Chilo, 72 h, oil seed rape leaf, 3 days, read-out: grading of mortality, CP. The method, then: as §1, §2, §3, §4

On to `CCOc1ccc(CCC(C)(C)COCc2cccc(Oc3ccccc3)c2)cc1` [Compound 33, 3,3-Dimethyl-1-(4-ethoxyphenyl)-4-(3-phenoxybenzyloxy)butane], for which the mortality at 500 ppm in the test with Musca domestica [1], in the test with Myzus persicae, in the test with Blattella germanica, with Heliothis viriscens, with Diabrotica balteata and in the test on Nilaparvata lugens was below 50% in each case. The mortality at 500 ppm was below 50% in the test on Tetranychus urticae and 80 to 100% with Chilo partellurs. The pest or weed control at 500 ppm in the test with Musca domestica [2] is below 50%.
As for `CCOc1ccc(/C=C\C(C)(C)COCc2cccc(Oc3ccccc3)c2)cc1` [Compound 3, 3,3-Dimethyl-1-(4-ethoxyphenyl)-4-(3-phenoxybenzyloxy)but-1-ene], the mortality at 500 ppm in the test on Musca domestica [1], in the test with Myzus persicae, with Blattella germanica, in the test on Heliothis viriscens, with Diabrotica balteata and in the test with Nilaparvata lugens was below 50% in each case. Further, the mortality at 500 ppm in the test with Tetranychus urticae and in the test with Chilo partellurs was below 50% in each case. Further, the pest or weed control at 500 ppm with Musca domestica [2] was below 50%.
With `CC(C)(C=Cc1ccccc1F)COCc1cccc(Oc2ccccc2)c1` [Compound 16, 3,3-Dimethyl-1-(2-fluorophenyl)-4-(3-phenoxybenzyloxy)but-1-ene], the mortality at 500 ppm in the test on Musca domestica [1], with Myzus persicae, in the test on Blattella germanica, in the test on Heliothis viriscens, with Diabrotica balteata and with Nilaparvata lugens was below 50% throughout. Also, the mortality at 500 ppm with Tetranychus urticae and with Chilo partellurs was below 50% throughout. For the same compound, in the test with Musca domestica [2], the pest or weed control at 500 ppm was below 50%.
In the case of `CC(C)(/C=C\c1ccc(F)cc1)COCc1ccc(F)c(Oc2ccccc2)c1` [Compound 5, 3,3-dimethyl-1-(4-fluorophenyl)-4-(4-fluoro-3-phenoxybenzyloxy)but-1-ene], the mortality at 500 ppm in the test with Musca domestica [1], with Myzus persicae, in the test with Blattella germanica, with Heliothis viriscens, in the test with Diabrotica balteata and in the test with Nilaparvata lugens was below 50% throughout. Besides, the mortality at 500 ppm in the test on Tetranychus urticae and with Chilo partellurs was below 50% in each case. Besides, the pest or weed control at 500 ppm in the test with Musca domestica [2] was below 50%.
Turning to `Clc1ccc(/C=C/C2(COCc3cccc(Oc4ccccc4)c3)CC2)cc1` [Compound 22, 1-[2-(4-chlorophenyl)ethen-1-yl]-1-(3-phenoxybenzyloxymethyl)cyclopropane], the mortality at 500 ppm is below 50% in the test with Musca domestica [1]; below 50% in the test on Myzus persicae; below 50% with Blattella germanica; below 50% with Heliothis viriscens; below 50% in the test with Diabrotica balteata; 50 to 79% with Nilaparvata lugens. The mortality at 500 ppm was below 50% with Tetranychus urticae and 80 to 100% in the test on Chilo partellurs. For the same compound, the pest or weed control at 500 ppm with Musca domestica [2] was below 50%.
As for `Cc1ccc(C=CC(C)(C)COCc2ccc(F)c(Oc3ccccc3)c2)cc1` [Compound 8, 3,3-Dimethyl-1-(4-methylphenyl)-4-(4-fluoro-3-phenoxybenzyloxy)but-1-ene], the mortality at 500 ppm in the test on Musca domestica [1] was in the range of 80 to 100%; in the test on Myzus persicae, 80 to 100%; with Blattella germanica, 50 to 79%; with Heliothis viriscens, 80 to 100%; in the test with Diabrotica balteata it was 80 to 100%; in the test on Nilaparvata lugens, 80 to 100%. Besides, the values for the mortality at 500 ppm with Tetranychus urticae and with Chilo partellurs were below 50% and 80 to 100%, respectively. The pest or weed control at 500 ppm in the test with Musca domestica [2] was in the range of 80 to 100%.
Turning to `CC(C)(C=Cc1ccc(Cl)cc1)COCc1ccc(F)c(Oc2ccccc2)c1` [Compound 7, 3,3-Dimethyl-1-(4-chlorophenyl)-4-(4-fluoro-3-phenoxybenzyloxy)but-1-ene], the mortality at 500 ppm with Musca domestica [1] is 80 to 100%; in the test with Myzus persicae it was 80 to 100%; in the test with Blattella germanica, below 50%; in the test with Heliothis viriscens it was 80 to 100%; in the test on Diabrotica balteata it was 80 to 100%; with Nilaparvata lugens it was below 50%. Also, the mortality at 500 ppm is below 50% with Tetranychus urticae and 80 to 100% in the test with Chilo partellurs. The pest or weed control at 500 ppm with Musca domestica [2] fell in the range of 80 to 100%.
As to `Cc1ccc(C=CC(C)(C)COCc2cccc(Oc3ccccc3)c2)cc1` [Compound 14, 3,3-Dimethyl-1-(4-methylphenyl)-4-(3-phenoxybenzyloxy)but-1-ene], the mortality at 500 ppm in the test on Musca domestica [1] is below 50%; in the test with Myzus persicae it was below 50%; in the test on Blattella germanica it was below 50%; in the test with Heliothis viriscens, 80 to 100%; with Diabrotica balteata it was 50 to 79%; in the test on Nilaparvata lugens, 50 to 79%. In addition, the mortality at 500 ppm in the test on Tetranychus urticae was below 50%; in the test on Chilo partellurs it was 80 to 100%. For the same compound, in the test on Musca domestica [2], the pest or weed control at 500 ppm was below 50%.
`CCC(C)(/C=C\c1ccc(Cl)cc1)COCc1cccc(Oc2ccccc2)c1` (stereo not drawn) [Compound 26, 3-Ethyl-3-methyl-1-(4-chlorophenyl)-4-(3-phenoxybenzyloxy)but-1-ene]: the mortality at 500 ppm in the test on Musca domestica [1], in the test with Myzus persicae, in the test with Blattella germanica, in the test with Heliothis viriscens, in the test with Diabrotica balteata and with Nilaparvata lugens was below 50% in each case. Besides, the mortality at 500 ppm in the test on Tetranychus urticae and in the test with Chilo partellurs was below 50% in each case. For the same compound, the pest or weed control at 500 ppm in the test with Musca domestica [2] is below 50%.
Take `CC(C)(/C=C\c1ccccc1)COCc1ccc(F)c(Oc2ccccc2)c1` [Compound 21, 3,3-Dimethyl-1-phenyl-4-(4-fluoro-3-phenoxybenzyloxy)but-1-ene]: the mortality at 100 ppm in the test on Musca domestica [1] (100 ppm), in the test on Myzus persicae (100 ppm), with Blattella germanica (100 ppm), with Heliothis viriscens, in the test on Diabrotica balteata (100 ppm) and in the test with Nilaparvata lugens (100 ppm) was below 50% each time. For the same compound, the mortality at 100 ppm with Tetranychus urticae (100 ppm) was below 50%; in the test on Chilo partellurs (100 ppm) it was 80 to 100%. The pest or weed control at 100 ppm in the test with Musca domestica [2] (100 ppm) was below 50%.
On to `CC(C)(C=Cc1ccccc1)COCc1ccc(F)c(Oc2ccccc2)c1` [Compound 9, 3,3-Dimethyl-1-phenyl-4-(4-fluoro-3-phenoxybenzyloxy)but-1-ene], for which the mortality at 500 ppm in the test on Musca domestica [1] was 80 to 100%; with Myzus persicae, 80 to 100%; in the test on Blattella germanica, below 50%; with Heliothis viriscens, 80 to 100%; in the test on Diabrotica balteata, 80 to 100%; in the test with Nilaparvata lugens, 80 to 100%. For the same compound, the mortality at 500 ppm is below 50% with Tetranychus urticae and 80 to 100% in the test with Chilo partellurs. Moreover, the pest or weed control at 500 ppm in the test with Musca domestica [2] fell in the range of 80 to 100%.
As for `CCOc1ccc(/C=C/C(C)(C)COCc2cccc(Oc3ccccc3)c2)cc1` [Compound 4, 3,3-Dimethyl-1-(4-ethoxyphenyl)-4-(3-phenoxybenzyloxy)but-1-ene], the mortality at 500 ppm in the test on Musca domestica [1], with Myzus persicae, with Blattella germanica, in the test with Heliothis viriscens, in the test with Diabrotica balteata and in the test on Nilaparvata lugens was below 50% each time. In addition, the mortality at 500 ppm in the test on Tetranychus urticae and in the test with Chilo partellurs was below 50% in each case. Moreover, the pest or weed control at 500 ppm in the test with Musca domestica [2] was below 50%.

What is called mortality is the percentage killed.
